Data on three compounds can be found in patent US4894388A, “Glycosidase inhibitors and use thereof” (priority 1988, dated 1990).

The target of test [1] is T1, lysosomal (acidic) α-D-mannosidase (Homo sapiens, UniProt O00754).
T1 construct: Post mortem human liver, which had been stored at -20° C; from tissue; host or cells: post mortem human liver, 37,000 g supernatant; concanavalin A-Sepharose fraction
T1 sequence (O00754 50-1011): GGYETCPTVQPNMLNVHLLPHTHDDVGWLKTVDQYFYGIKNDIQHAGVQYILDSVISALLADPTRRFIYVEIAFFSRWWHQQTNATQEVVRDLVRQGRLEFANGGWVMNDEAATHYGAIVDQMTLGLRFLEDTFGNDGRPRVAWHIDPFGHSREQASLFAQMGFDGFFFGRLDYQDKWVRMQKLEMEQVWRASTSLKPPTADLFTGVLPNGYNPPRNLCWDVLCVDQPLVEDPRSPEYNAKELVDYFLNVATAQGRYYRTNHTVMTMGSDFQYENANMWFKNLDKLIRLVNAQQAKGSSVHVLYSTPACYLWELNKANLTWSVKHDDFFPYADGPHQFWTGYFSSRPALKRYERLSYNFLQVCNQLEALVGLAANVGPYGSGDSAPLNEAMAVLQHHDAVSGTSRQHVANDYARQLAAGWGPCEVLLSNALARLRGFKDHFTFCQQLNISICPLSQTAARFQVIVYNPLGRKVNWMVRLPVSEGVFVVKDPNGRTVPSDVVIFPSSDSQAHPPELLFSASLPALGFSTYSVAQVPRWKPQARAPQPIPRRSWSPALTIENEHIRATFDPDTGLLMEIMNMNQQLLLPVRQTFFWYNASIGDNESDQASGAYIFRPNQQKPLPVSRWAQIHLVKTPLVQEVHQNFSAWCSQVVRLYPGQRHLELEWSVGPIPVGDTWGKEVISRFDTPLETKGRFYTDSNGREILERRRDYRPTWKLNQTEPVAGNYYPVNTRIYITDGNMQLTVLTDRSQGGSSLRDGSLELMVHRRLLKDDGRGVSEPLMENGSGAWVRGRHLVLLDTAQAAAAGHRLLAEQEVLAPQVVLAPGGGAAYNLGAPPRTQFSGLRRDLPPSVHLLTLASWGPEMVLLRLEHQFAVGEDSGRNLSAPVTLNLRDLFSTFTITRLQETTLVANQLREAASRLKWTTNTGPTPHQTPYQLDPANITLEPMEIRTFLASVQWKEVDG
The experiment in a line: Inhibition of lysosomal (acidic) α-D-mannosidase, fluorigenic 4-methylumbelliferyl glycoside substrate. It is filed as biochemical. To be noted: for inhibition at 1000 µM: 1 mM inhibitor, 0.5 mM substrate, pH 4.0, mean of 2-4 determinations. How it is done:
(§1) Post mortem human liver, which had been stored at -20° C. until required was homogenized in deionized water (50%, w/v) in a Potter-Elvehjem homogenizer and then centrifuged at 37,000 g for 30 min in an MSE 18 centrifuge. The resultant supernatant was used as the source of enzymic activities.
(§2) The glycosidase activities in an extract of normal human liver were assayed by using the appropriate fluorigenic 4-methylumbelliferyl glycoside substrate (Koch-Light, Haverhill, Suffolk, U.K.) with a concentration of 0.5 mM at the optimal pH of each enzyme [Burditt et al., Clin. Chim. Acta 140, 201-209 (1980)]. Human liver acidic (lysomal) and neutral (cystosolic) α-D-mannosidases were assayed similarly at their pH-optima, of 4.0 and 6.5, respectively, after separation by affinity chromatography on concanavalin A-Sepharose® (Pharmacia Ltd, Milton Keynes, Bucks, U.K.) [Phillips et al., Biochem. J. 153, 579-587 (1976)]. The residual intermediate (Golgi) α-mannosidase II activity in extracts of fibroblasts from a patient with the lysosomal storage disease, mannosidosis, was assayed at pH 5.75 using the synthetic substrate (Burditt et al, Ibid.). The specificity of the inhibitors was determined by assaying the glycosidases in the presence and absence of a 1 mM solution of each compound. The nature of the inhibition and the value of Ki were determined using the Dixon graphical procedure.
Enzymic activities were measured in the presence and absence of 1 mM inhibitor. Inhibition (%) was calculated as the fraction of activity lost in the presence of inhibitor. The values are means of two to four independent determinations.

In test [2] the test system is α-D-mannosidase (multiple forms). Nature of the test: Inhibition of multiple forms of α-D-mannosidase. It is filed as biochemical. To be noted: human liver. As to the method:
as §1, §2

Test [3] concerns β-D-glucosidase. The experiment in a line: Inhibition of β-D-glucosidase. Format: biochemical, human. To be noted: relative to α-D-mannosidase. As to the method: as §1, §2

Take `OC[C@H](O)[C@@H]1NC[C@@H](O)[C@H]1O` [DIA, 1,4-dideoxy-1,4-imino-L-allitol]: in test [1], the “inhibition of lysosomal α-D-mannosidase (in words)” value was “good inhibitor” and at 1000 µM the inhibition was 84%. The compound further yielded a Ki in test [1] (pH optimum of 4.0, Dixon graphical procedure) of 170 µM. Also, the “inhibition of multiple forms of α-D-mannosidase (in words)” value in test [2] is “moderately strong inhibitor”. Also, the “inhibition of β-D-glucosidase (in words)” value in test [3] is “to a lesser extent”.

Turning to `CN1C[C@@H](O)[C@@H](O)[C@@H]1[C@@H](O)CO` [N-methyl DIA, N-methyl-1,4-dideoxy-1,4-imino-L-allitol], in test [1], the inhibition at 1000 µM turned out to be 13%.

In the case of `OC[C@H](O)[C@H]1[C@H](O)[C@H](O)CN1Cc1ccccc1` [N-benzyl DIA, N-benzyl-1,4-dideoxy-1,4-imino-L-allitol], the inhibition at 1000 µM in test [1] is 3%.

As a reminder, the inhibition is the change of the read-out against control, counted positive when it falls. A higher inhibition goes with a strong effect. For orientation: Ki means the equilibrium dissociation constant of an inhibitor or competing ligand from its target. Lower therefore signals tighter binding.
